Like-named read-outs stand apart in the source and are kept apart here. Where a SMILES comes first, the peptide text is derived from it. Bridges are numbered along the chain shown (N, C = ends).
Columns and labels:
[1] = test system: 15 different proteases; assay: Selectivity of P12-3A against 15 other proteases (MMPs and peptidases of different classes); format: biochemical; details: P12-3A 100 μM
Procedure: FIG. 8A-B. Selectivity of P12-3A for IDE vis-à-vis other proteases. Activity of P12-3A (100 μM) against (A) multiple matrix-metalloproteases (MMPs) and (B) multiple peptidases of different protease classes. […] Data are mean±SEM, n=8-16 per group. P<0.05 by 2-tailed Student's t-test. […] See Experimental Procedures for details. NEP, neprilysin; mCatD, murine cathepsin D; hCatD, human cathepsin D.
(§1) Degradation Assays—IDE activity was quantified by monitoring the degradation of (7-methoxycoumarin-4-yl)acetic acid-[…](2,4-dinitrophenyl) (FRET1, 5 μM) (49,55), fluoresceinated and biotinylated amyloid β-protein (FAβB; 500 nM) or recombinant human insulin (50 nM) in PBS supplemented with 0.05% BSA. FRET1 degradation was measured by changes in fluorescence (λex=340 nm, λem=420 nm); FAβB degradation was monitored by fluorescence polarization (λex=488 nm, λem=525 nm), as described (56); and insulin degradation was quantified by ELISA. In vitro activity assays incorporated recombinant human IDE (1 nM) purified from bacteria (35). For quantitation of insulin degradation in primary murine skin fibroblasts, cells (1×10^5/well) were plated in 96-well plates and maintained in DMEM supplemented with 10% fetal bovine serum (FBS), 2 mM glutamine, penicillin and streptomycin. […]

[2] = target: T1, IDE (Homo sapiens, UniProt P14735); assay: IDE activity assay, FAβB (amyloid β-protein) degradation by fluorescence polarization; format: biochemical; details: P12-3A 100 μM
T1 construct: made in house; host or cells: bacteria
T1 sequence (P14735 1-1019): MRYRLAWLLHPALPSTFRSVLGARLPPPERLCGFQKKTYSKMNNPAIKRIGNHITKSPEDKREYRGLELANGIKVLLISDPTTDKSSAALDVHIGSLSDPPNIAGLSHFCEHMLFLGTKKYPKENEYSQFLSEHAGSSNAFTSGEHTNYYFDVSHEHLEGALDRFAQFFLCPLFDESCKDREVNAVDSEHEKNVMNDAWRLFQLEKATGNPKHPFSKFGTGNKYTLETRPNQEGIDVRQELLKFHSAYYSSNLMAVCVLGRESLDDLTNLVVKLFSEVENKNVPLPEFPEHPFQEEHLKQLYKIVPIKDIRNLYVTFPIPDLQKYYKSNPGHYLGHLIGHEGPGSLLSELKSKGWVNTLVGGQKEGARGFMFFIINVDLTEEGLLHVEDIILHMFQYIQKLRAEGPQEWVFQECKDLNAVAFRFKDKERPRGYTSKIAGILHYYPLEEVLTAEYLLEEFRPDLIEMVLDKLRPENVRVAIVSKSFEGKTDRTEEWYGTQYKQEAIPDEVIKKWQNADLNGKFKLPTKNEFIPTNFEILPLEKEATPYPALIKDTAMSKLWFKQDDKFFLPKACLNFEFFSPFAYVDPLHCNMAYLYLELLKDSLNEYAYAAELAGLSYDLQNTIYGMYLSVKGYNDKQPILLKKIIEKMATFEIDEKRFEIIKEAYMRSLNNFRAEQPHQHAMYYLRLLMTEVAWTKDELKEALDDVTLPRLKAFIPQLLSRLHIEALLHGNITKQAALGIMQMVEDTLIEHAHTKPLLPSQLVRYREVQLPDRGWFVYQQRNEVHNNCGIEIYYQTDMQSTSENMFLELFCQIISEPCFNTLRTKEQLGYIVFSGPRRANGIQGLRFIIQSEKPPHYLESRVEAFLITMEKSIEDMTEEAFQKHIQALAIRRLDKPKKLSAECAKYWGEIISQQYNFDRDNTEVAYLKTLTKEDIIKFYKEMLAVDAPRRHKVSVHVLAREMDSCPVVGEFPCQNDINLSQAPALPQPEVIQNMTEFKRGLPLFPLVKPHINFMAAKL
Procedure: as §1, with “streptomycin. After addition of insulin (10 nM or 100 nM), samples of conditioned medium were removed daily and quickly frozen, then insulin levels were quantified in parallel by ELISA according to manufacturer's recommendations (Crystal Chem, Downers Grove, Ill., USA).” for “streptomycin.”

[3] = target: T1, IDE; assay: IDE protease activity assay, insulin degradation quantified by ELISA; format: biochemical
Procedure: To assess the extent to which these peptide sequences inhibit IDE, we quantified their potency in protease activity assays using recombinant human IDE and two different substrates: FRET1, a fluorogenic peptide (45), and recombinant human insulin.
Degradation Assays—IDE activity was quantified by monitoring the degradation of (7-methoxycoumarin-4-yl)acetic acid-[…](2,4-dinitrophenyl) (FRET1, 5 μM) (49,55), fluoresceinated and biotinylated amyloid β-protein (FAβB; 500 nM) or recombinant human insulin (50 nM) in PBS supplemented with 0.05% BSA. FRET1 degradation was measured by changes in fluorescence (λex=340 nm, λem=420 nm); FAβB degradation was monitored by fluorescence polarization (λex=488 nm, λem=525 nm), as described (56); and insulin degradation was quantified by ELISA. In vitro activity assays incorporated recombinant human IDE (1 nM) purified from bacteria (35). For quantitation of insulin degradation in primary murine skin fibroblasts, cells (1×10^5/well) were plated in 96-well plates and maintained in DMEM supplemented with 10% fetal bovine serum (FBS), 2 mM glutamine, penicillin and streptomycin. After addition of insulin (10 nM or 100 nM), samples of conditioned medium were removed daily and quickly frozen, then insulin levels were quantified in parallel by ELISA according to manufacturer's recommendations (Crystal Chem, Downers Grove, Ill., USA). Assessment of the activity of P12-3A against a variety of matrix-metalloproteases was conducted using the Matrix Metalloproteinase (MMP) Inhibitor Profiling Kit, Fluorometric RED (Enzo Life Sciences, Inc., Farmingdale, N.Y., USA) according to manufacturer's recommendations using the broad-spectrum MMP inhibitor, NNGH, as a positive control.

[4] = test system: primary murine skin fibroblasts; assay: Hydroxyproline secreted into the medium (collagen production and secretion); format: cell-based, mouse; details: P12-3A 100 μM
Procedure: FIG. 4A-F. Effects of P12-3A on cultured skin cells. A, Insulin concentrations as a function of time in logarithmically growing primary murine skin fibroblasts in the absence or presence of P12-3A (100 μM). […] Data are mean±SEM of 4 independent replications. *P<0.05, **P<0.01. B, Proliferation of cells in the absence or presence of P12-3A (100 μM). […] C,D,E, P12-3A (100 μM) potentiates insulin-induced collagen production in skin fibroblasts. Collagen production was assessed by COL1A1 mRNA levels (C), levels of hydroxyproline secreted into the medium (D), and cell-associated mature alpha-1 type I collagen levels detected by Western blotting (E). […] Migration of HaCaT cells 48 h after induction of a scratch wound in the presence of the indicated quantities of insulin and/or P12-3A (100 μM). […]
Insulin promotes wound healing and overall skin health by affecting a number of processes, including cell proliferation (2,3), cell migration (5,6), and the production and secretion of ECM components, particularly type I collagen (7-13). We therefore assessed the ability of P12-3A to influence these processes in cultured skin fibroblasts and keratinocytes. To that end, primary mouse skin fibroblasts were grown for 4 d in multiple concentrations of insulin in the presence or absence of P12-3A, and insulin concentration over time was monitored by ELISA. […]

## CC(C)C[C@H](NC(=O)[C@H](CO)NC(=O)[C@@H](N)CCC(N)=O)C(=O)N1CCC[C@H]1C(=O)N[C@@H](Cc1c[nH]c2ccccc12)C(=O)N[C@H]1CSSC[C@@H](C(=O)N[C@H](C(=O)N[C@H](C(N)=O)[C@@H](C)O)C(C)C)NC(=O)[C@H](Cc2c[nH]cn2)NC(=O)[C@@H]2CCCN2C(=O)[C@H](Cc2ccc(O)cc2)NC1=O [Peptide P12-3A] (H-QSLPWCYPHCVT-NH2; disulfide 6-10 (inferred))
[1]
  inhibition of 15 different proteases: essentially no inhibition
[2]
  inhibition of IDE in selectivity panel: significant inhibition
[3]; deliberately cyclized, highly pure cosmetic-grade P12-3A, n=6, read-out: Ki against insulin degradation
  Ki: 2.5 ± 0.31 µM
[3]; substrate recombinant human insulin, Ki converted from IC50 with the Cheng-Prusoff equation, read-out: Ki Insulin
  Ki: 4.1 ± 0.3 µM
[4]
  hydroxyproline levels secreted into the medium: ~4.6 times that secreted by untreated cells

Source: patent US11555055B2, “Peptide inhibitors of insulin-degrading enzyme” (The Regents of the University of California, priority 2017, dated 2023)
